# Data as given in US7115623B2, “PDE IV inhibitors” (Aska Pharmaceuticals Co., Ltd., priority 2001, dated 2006).
# Legend:
# [1] = tested on: actively sensitized guinea pigs; test: Inhibition of antigen-induced immediate asthmatic response (airway resistance, Konzett-Rossler method); assay type: in vivo, Male Hartley outbred guinea pigs; conditions: Cavia porcellus; orally, 60 minutes prior to antigen-challenge, ovalbumin-sensitized guinea pigs, Probit method
# Procedure: Male Hartley outbred guinea pigs were sensitized by administering intraperitoneally physiological saline (0.5 ml) containing ovalbumin (1 mg, antigen) and 5×10^9 inactivated Bordetella pertussis dead cells (adjuvant). Eleven to thirteen days after the first sensitization, 0.05 ml of an ovalbumin solution (1 mg/ml) (ovalbumin is dissolved in physiological saline) was administered to the lateroabdominal region of each guinea pig intracutaneously. An establishment of sensitization was checked relying on cutaneous reaction. Only guinea pigs wherein significant reddening responses occurred 5 to 10 minutes later were employed in the next measurement test for airway resistance.
# The guinea pigs (3 animals per group) actively sensitized in the above step (1) were employed to measure for their airway pressure according to Konzett-Rossler method (Arch. Exp. Path. Pharmakol., 195, 71 (1940)).
# Thirteen days after the final sensitization, guinea pigs fasted overnight, and were on the next day anesthetized with a pentobarbital solution (30 mg/1.2 ml/kg, dissolved in physiological saline, intraperitoneal administration). After the guinea pigs were fixed in a supine position, their trachea was incised followed by insertion with one port of a 4-port cannula. Among the remaining 3 ports, 2 ports were connected to an artificial respirator (Model 683, Harvard). The animals were ventilated with 10 ml/kg of air per ventilation at a rate of 60 beats/min via the artificial respirator from the cannula. One port remainder was connected to a respiratory amplifier (AR-601G, Nihon Kohden, Japan) via an airflow resistance tube (TV-241T, Nihon Kohden, Japan) and a differential pressure transducer (TP-602T, Nihon Kohden, Japan) connected with a control box (RY-111S, Nihon Kohden, Japan). From a catheter inserted into a left carotid artery, blood pressures were monitored with a blood pressure measurement unit (AP641G, NEC Corp., Japan) via a blood pressure transducer (TP-300T, Nihon Kohden, Japan), and heart rates were recorded on a thermal recorder (WT-685G, Nihon Kohden, Japan), relying on blood pressure pulse waves after being led to a cardiograph unit (AT601G, Nihon Kohden, Japan).
# After airway pressure became stable, an ovalbumin solution. (1 mg/ml, dissolved in physiological saline) was administered at a dose of 1 ml/kg via a tube with which the right jugular vein of guinea pigs was cannulated.
# Each test compound was suspended in 0.5% CMC—Na solution and administered orally with an oral sound at a dose of 0.03 to 20 mg/2 ml/kg 60 minutes prior to the antigen-challenge. Control groups received only 0.5% CMC—Na solution in an equivalent amount. The pentobarbital-anesthetization and tracheal incision were conducted 30 minutes prior to the antigen-challenge.
# Each percent reduction of increase in airway resistance (each test compound-administered group versus control group) was calculated according to the equation given below. ED50 was obtained by Probit method.
# [2] = tested on: PDE IV isozymes separated from U937 culture cells; test: PDE IV inhibition ([3H]-cAMP hydrolysis); assay type: biochemical; conditions: cAMP 1 μM as substrate, 30° C., 20 minutes, Probit method
# Procedure: PDE IV isozymes as used herein were separated from U937 culture cells by using an anion exchange chromatography. Type IV PDE isozyme was admixed with ethylene glycol (EG) to adjust the final EG concentration to 30%, then stored at −20° C. and diluted when used. The enzymatic activity for PDE IV was measured using cAMP as a substrate.
# Each test compound was dissolved in DMSO to adjust the final concentration to 1% (2.5 μl/tube). Incubation buffer solution (pH7.5): • Tris-HCl (50 mM), magnesium chloride (6 mM), dithiothreitol (2.5 mM), 5-nucleotidase (4 μg/ml), bovine serum albumin (0.23 mg/ml), and cAMP (1 μM).
# A mixture of the aforementioned test compound solution and the buffer solution was incubated at 30° C. for 20 minutes. The reaction was quenched by admixing with 1 ml of anion exchange resin slurry (AG1-X8, 200–400 meshes, chloride form; Bio-Rad) to absorb unreacted substrates. After the reaction stopped, the mixture was centrifuged at 800×g for 10 minutes, and the resulting supernatant was collected with vials in 250 μl aliquots. To each vial was added 5 ml of ACS-II (scintillator, Amersham). The radioactivity was measured with a liquid scintillator counter for [^3H]-adenosine and set as the PDE IV activity.
# TNF-α production = test: Inhibition of TNF-α production in galactosamine- and LPS-stimulation; assay type: in vivo, C3H/HeN mice; conditions: Mus musculus; oral, 1 hour before i.v. galactosamine 800 mg/kg and LPS 5 μg/kg; serum TNF-α by ELISA 1 hour later
# Procedure: A suspension of each test compound in 0.5% CMC—Na solution was administered orally to C3H/HeN mice at a dose of 0.10 to 10 mg/kg. One hour later, the animals received intravenously galactosamine at a dose of 800 mg/kg and LPS at a dose 5 μg/kg to raise the induction of TNF-α production. One hour later after the galactosamine- and LPS-administration, amounts of TNF-α in serum samples were measured by ELISA.
# Male Marshall ferrets = test: Emetic action; assay type: in vivo; conditions: oral, observed within 12 hours, dose = ED50 of Assay Example 2
# Procedure: Male Marshall ferrets (each group consisting of 3 animals) as used herein fasted overnight. On the next day, a suspension of each test compound in 0.5% CMC—Na solution was administered orally to the animals. […] Next, each maximum tolerance dose against emesis was obtained. SB207499 was used for the reference compound in this assay.
# ICR mice = test: Toxicology study; assay type: in vivo; conditions: oral 300 mg/10 ml/kg
# Procedure: Each Compound (Example Nos. 7 and 8) was administered orally to ICR mice (7 animals per group) as a test compound. […] Each test compound was suspended in 0.5% CMC—Na solution and given orally to the animal at a dose of 300 mg/10 ml/kg.
smiles,measurement,setting,value
"Nc1cccc(-n2c(=O)c(CCCc3ccncc3)cc3cccnc32)c1 [Example No. 7, 1-(3-Aminophenyl)-3-[3-(pyridin-4-yl)propyl]-1,8-naphthyridin-2(1H)-one]",ED50,[1],1.1 mg/kg
same,IC50,[2],0.23 µM
same,ED50,TNF-α production,0.45 mg/kg
same,Emetic actions at asthmatic response-inhibitory ED50 level,Male Marshall ferrets,no observation for emetic actions
same,Body weight gain,ICR mice,No reduction of body weight gains was observed
same,Mortality,ICR mice,None of the animals were died
same,Other parameters (general health conditions),ICR mice,no abnormality was observed
